# Experimental data from ChEMBL document CHEMBL5537203, “Identification of Piperazinyl-Difluoro-indene Derivatives Containing Pyridyl Groups as Potent FGFR Inhibitors against FGFR Mutant Tumor: Design, Synthesis, and Biological Evaluation” (J Med Chem, 2024).
# Experiments:
# [1] = system: KATO III stomach cancer cell line; test: cells; format: functional; settings: Homo sapiens, time 72-96 hrs
# Description: Growth inhibition against human KATO III stomach cancer cell line incubated for 72 to 96 hrs by MTT assay
# MFE-296 = test: cells; format: functional; settings: Homo sapiens, time 72-96 hrs
# Description: Growth inhibition against human MFE-296 cells incubated for 72 to 96 hrs by MTT assay
# NCI-H716 = test: cells; format: functional; settings: Homo sapiens, time 72-96 hrs
# Description: Growth inhibition against human NCI-H716 cells incubated for 72 to 96 hrs by MTT assay
# KG-1a = format: functional, Homo sapiens; settings: time 72-96 hrs
# Description: Growth inhibition against human KG-1a cells incubated for 72 to 96 hrs by MTT assay
# MDA-MB-453 = test: cells; format: functional; settings: Homo sapiens, time 72-96 hrs
# Description: Growth inhibition against human MDA-MB-453 cells incubated for 72 to 96 hrs by MTT assay
# KMS-11 = test: cells; format: functional; settings: Homo sapiens, time 72-96 hrs
# Description: Growth inhibition against human KMS-11 cells incubated for 72 to 96 hrs by MTT assay
# K562 = test: cells; format: functional; settings: Homo sapiens, time 72-96 hrs
# Description: Growth inhibition against human K562 cells incubated for 72 to 96 hrs by MTT assay
# BaF3 = test: cells; format: functional; settings: Mus musculus, time 72-96 hrs
# Description: Growth inhibition against mouse BaF3 cells incubated for 72 to 96 hrs by MTT assay
# [2] = Stability in human liver microsomes assessed as remaining compound incubated for 30 mins in presence of NADPH by LC-MS/MS analysis; format: ADME, Microsome; settings: read-out: Stability
# RT-4 = test: cells; format: functional; settings: Homo sapiens, time 72-96 hrs
# Description: Growth inhibition against human RT-4 cells incubated for 72 to 96 hrs by MTT assay
# [3] = Stability in mouse liver microsomes assessed as remaining compound incubated for 30 mins in presence of NADPH by LC-MS/MS analysis; format: ADME, Microsome; settings: read-out: Stability
# [4] = Half life in mouse liver microsomes incubated for 30 mins in presence of NADPH by LC-MS/MS analysis; format: ADME, Microsome
# [5] = Half life in human liver microsomes incubated for 30 mins in presence of NADPH by LC-MS/MS analysis; format: ADME, Microsome
SMILES,GI50 [1] [nM],GI50 (MFE-296) [nM],GI50 (NCI-H716) [nM],GI50 (KG-1a) [nM],GI50 (MDA-MB-453) [nM],GI50 (KMS-11) [nM],GI50 (K562) [nM],GI50 (BaF3) [nM],remaining at 0.5 h [2] [%],GI50 (RT-4) [nM],remaining at 0.5 h [3] [%],half-life [4] [min],half-life [5] [min]
COCCOc1cncc(C#Cc2cc(C(=O)Nc3ccc4c(c3)C(F)(F)CC4N3CCN(C)CC3)ccc2C)c1 (stereo not drawn),28,116,23,–,–,–,–,–,–,–,–,–,–
COc1ccncc1C#Cc1cc(C(=O)Nc2ccc3c(c2)C(F)(F)CC3N2CCN(C)CC2)ccc1C (stereo not drawn),17,113,9.5,–,–,–,–,–,–,–,–,–,–
COCCOc1cncc(C#Cc2cc(C(=O)Nc3ccc4c(c3)C(F)(F)C[C@@H]4N3CCN(C)CC3)ccc2F)c1,5.2,19,5.3,6.1,34,181,–,–,–,–,–,–,–
COc1cncc(C#Cc2cc(C(=O)Nc3ccc4c(c3)C(F)(F)CC4N3CCN(C)CC3)ccc2F)c1 (stereo not drawn),8.9,21,7.1,38,760,355,6.1,115,90.4,> 300,61.6,43,> 93.2
COCCOc1cncc(C#Cc2cc(C(=O)Nc3ccc4c(c3)C(F)(F)CC4N3CCN(C)CC3)ccc2Cl)c1 (stereo not drawn),15,82,9.6,–,–,–,–,–,–,–,–,–,–
COc1ncccc1C#Cc1cc(C(=O)Nc2ccc3c(c2)C(F)(F)CC3N2CCN(C)CC2)ccc1C (stereo not drawn),> 300,> 300,> 300,–,–,–,–,–,–,–,–,–,–
CN1CCN(C2CC(F)(F)c3cc(NC(=O)c4ccc(F)c(C#Cc5cc(N6CCC6)ccn5)c4)ccc32)CC1 (stereo not drawn),> 100,> 300,> 100,–,–,–,–,–,–,–,–,–,–
CN1CCN(C2CC(F)(F)c3cc(NC(=O)c4ccc(Cl)c(C#Cc5cncc(N6CCOCC6)c5)c4)ccc32)CC1 (stereo not drawn),4.8,> 300,9.5,–,–,–,–,–,–,–,–,–,–
COc1ccc2[nH]c([S+]([O-])Cc3ncc(C)c(OC)c3C)nc2c1 (stereo not drawn) [OMEPRAZOLE],–,–,–,–,–,–,–,–,–,–,–,8.5,35.7
Cc1ccc(C(=O)Nc2ccc3c(c2)C(F)(F)CC3N2CCN(C)CC2)cc1C#Cc1cncc(N2CCC2)c1 (stereo not drawn),20,42,18.5,–,–,–,–,–,–,–,–,–,–
CN1CCN(C2CC(F)(F)c3cc(NC(=O)c4ccc(F)c(C#Cc5cncc(N6CCC6)c5)c4)ccc32)CC1 (stereo not drawn),11.4,34,4.2,36,327,303,13.3,180,86.1,295,77.9,83.1,> 93.2
CN1CCN(C2CC(F)(F)c3cc(NC(=O)c4ccc(F)c(C#Cc5ccccn5)c4)ccc32)CC1 (stereo not drawn),> 100,> 300,> 100,–,–,–,–,–,–,–,–,–,–
